Experimental data reported in patent US6492356B1, “Acylguanidine derivatives as inhibitors of bone resorption and as vitronectin receptor antagonists” (Aventis Pharma Deutschland GmbH, priority 1997, dated 2002).
pIC50: −log10 of the molar value.

Target: T1, vitronectin receptor αvβ3 (Homo sapiens, UniProt P05106+P06756)
T1 construct: expressed in transfected cells
Assay: Inhibition of binding of 293 cells to human vitronectin (Vn/293 cell test)
Format: cell-based
Conditions: 293 cells cotransfected with αv and β3 subunits; plate coated with human vitronectin; 90 min at 37° C.
Description: Test for the measurement of the inhibition of binding of 293 cells to human vitronectin (Vn/293 cell test)
1. Purification of Human Vitronectin
Human vitronectin is isolated from human plasma and purified by affinity chromatography according to the method of Yatohyo et al., Cell Structure and Function, 1988, 23, 281-292.
293 cells, a human embryonic kidney cell line, which are cotransfected with DNA sequences for the αv and β3 subunits of the vitronectin receptor αvβ3 , are selected for a high rate of expression (>500,000 αvβ3 receptors/cell) according to the FACS method. The selected cells are cultured and sorted again by means of FACS in order to obtain a stable cell line (15 D) with expression rates >1,000,000 copies of αvβ3 per cell.
A Linbro 96-well tissue culture plate with a flat bottom is coated overnight at 4° C. with human vitronectin (0.01 mg/ml, 0.05 ml/well) in phosphate-buffered saline solution (PBS) and then blocked with 0.5% strength BSA (bovine serum albumin). Solutions of the test substances from 10^−10 mol/l to 2×10^−3 mol/l in glucose-containing DMEM medium are prepared and 0.05 ml/well of the solution are added to the plate in each case. The cells which express high levels of αvβ3 (for example 15 D) are suspended in glucose-containing DMEM medium and the suspension is adjusted to a content of 25,000 cells/0.05 ml of medium. 0.05 ml of this cell suspension is added to each well and the plate is incubated at 37° C. for 90 min. The plate is washed three times with warm PBS in order to remove unbound cells. The bound cells are lyzed in citrate buffer (25 mM, pH 5.0) which contains 0.25% Triton X-100. The hexoseamidase substrate p-nitrophenyl-N-acetyl-β-D-glucosaminide is then added and the plate is incubated at 37° C. for 90 min. The reaction is stopped with a glycine (50 mM)/EDTA (5 mM) buffer (pH 10.4) and the absorption of each well is measured at 405-650 nm. The data are analyzed according to standard processes.

T1 sequence (P06756 31-889 limits assumed): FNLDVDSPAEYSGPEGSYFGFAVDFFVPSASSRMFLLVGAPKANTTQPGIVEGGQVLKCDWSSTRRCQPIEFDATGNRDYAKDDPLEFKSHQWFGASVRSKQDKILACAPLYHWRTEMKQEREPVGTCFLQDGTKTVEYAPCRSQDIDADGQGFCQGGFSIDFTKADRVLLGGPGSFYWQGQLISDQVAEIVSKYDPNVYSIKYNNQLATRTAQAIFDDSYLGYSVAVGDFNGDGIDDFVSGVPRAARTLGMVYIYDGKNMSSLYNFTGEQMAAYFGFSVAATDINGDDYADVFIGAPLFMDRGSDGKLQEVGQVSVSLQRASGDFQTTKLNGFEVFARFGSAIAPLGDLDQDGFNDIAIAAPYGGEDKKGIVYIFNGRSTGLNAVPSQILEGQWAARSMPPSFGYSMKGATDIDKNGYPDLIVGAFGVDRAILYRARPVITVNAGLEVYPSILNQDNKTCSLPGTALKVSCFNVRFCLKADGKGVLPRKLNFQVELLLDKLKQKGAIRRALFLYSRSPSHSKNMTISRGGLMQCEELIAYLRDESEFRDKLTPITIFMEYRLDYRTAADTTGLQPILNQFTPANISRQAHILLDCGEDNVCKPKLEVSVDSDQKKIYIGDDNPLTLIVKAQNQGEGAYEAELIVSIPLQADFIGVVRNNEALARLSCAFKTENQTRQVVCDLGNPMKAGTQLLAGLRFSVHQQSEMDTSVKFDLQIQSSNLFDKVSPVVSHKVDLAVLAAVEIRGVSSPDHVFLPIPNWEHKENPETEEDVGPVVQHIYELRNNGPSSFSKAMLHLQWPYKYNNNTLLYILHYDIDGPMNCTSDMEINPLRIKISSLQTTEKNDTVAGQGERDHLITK
T1 sequence (P06756 891-1048 limits assumed): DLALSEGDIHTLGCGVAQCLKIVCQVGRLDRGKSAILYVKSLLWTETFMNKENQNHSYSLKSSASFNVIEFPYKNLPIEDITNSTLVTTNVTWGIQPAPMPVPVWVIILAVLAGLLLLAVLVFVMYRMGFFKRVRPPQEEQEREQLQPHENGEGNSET
T1 sequence (P05106 27-788): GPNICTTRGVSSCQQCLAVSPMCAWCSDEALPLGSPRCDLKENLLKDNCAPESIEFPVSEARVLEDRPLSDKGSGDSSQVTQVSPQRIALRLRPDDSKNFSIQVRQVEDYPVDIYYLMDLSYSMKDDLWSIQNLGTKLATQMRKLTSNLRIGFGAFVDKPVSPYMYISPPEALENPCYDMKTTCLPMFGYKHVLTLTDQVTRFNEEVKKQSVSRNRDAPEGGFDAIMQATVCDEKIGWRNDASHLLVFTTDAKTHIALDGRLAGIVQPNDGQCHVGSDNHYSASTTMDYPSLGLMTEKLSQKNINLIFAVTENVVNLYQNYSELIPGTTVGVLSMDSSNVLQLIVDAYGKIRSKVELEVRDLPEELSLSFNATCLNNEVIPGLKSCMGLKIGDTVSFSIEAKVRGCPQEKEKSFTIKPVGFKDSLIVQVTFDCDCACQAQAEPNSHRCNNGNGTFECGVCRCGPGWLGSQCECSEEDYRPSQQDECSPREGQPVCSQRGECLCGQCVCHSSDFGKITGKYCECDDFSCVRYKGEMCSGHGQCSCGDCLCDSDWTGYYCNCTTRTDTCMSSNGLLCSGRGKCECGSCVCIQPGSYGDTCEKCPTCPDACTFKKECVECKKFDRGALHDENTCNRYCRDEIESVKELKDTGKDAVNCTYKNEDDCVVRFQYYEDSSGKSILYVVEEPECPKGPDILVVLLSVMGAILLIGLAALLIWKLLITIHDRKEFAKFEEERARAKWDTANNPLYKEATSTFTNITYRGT

First: O=C(COc1ccc(C(=O)NC[C@H](NC(=O)OCc2ccccc2)C(=O)O)cc1)NC1=NCCCN1 [Example 3, (2S )-2-Benzyloxycarbonylamino-3-(4-((1,4,5,6-tetrahydropyrimidin-2-ylcarbamoyl)methyloxy)benzoylamino)propionic Acid]
Second: O=C(CCc1ccc(C(=O)NC[C@H](NC(=O)OCc2ccccc2)C(=O)O)cc1)NC1=NCCCN1 [Example 2, (2S)-2-Benzyloxycarbonylamino-3-(4-(2-(1,4,5,6-tetrahydropyrimidin-2-ylcarbamoyl)ethyl)benzoylamino)propionic Acid]
The pIC50 of the first is 1.90 log units lower: 5.87 for the first, 7.77 for the second.

`O=C(CCCOc1ccc(C[C@H](NC(=O)OCc2ccccc2)C(=O)O)cc1)NC1=NCCN1` [Example 6, (2S)-2-Benzyloxycarbonylamino-3-(4-(3-(4,5-dihydro-1H-imidazol-2-ylcarbamoyl)propyloxy)phenyl)propionic Acid] and `O=C(CCCOc1ccc(C[C@H](NC(=O)OCc2ccccc2)C(=O)O)cc1)NC1=NCCCN1` [Example 1, (2S)-2-Benzyloxycarbonylamino-3-(4-(3-(1,4,5,6-tetrahydropyrimidin-2-ylcarbamoyl)propyloxy)phenyl)propionic Acid] are within 0.2 log units of each other in pIC50: 7.49 for the first, 7.55 for the second.
